Measured values from patent US20260028352A1, “MACROCYCLIC IMIDAZO [1,2-B] PYRIDAZINE DERIVATIVE, PREPARATION METHOD THEREFOR, AND USE THEREOF” (SUZHOU LANGRUI BIOPHARMACEUTICAL CO., LTD., priority 2022, published 2026).

Each compound was assayed on Ba/F3-TPM3-NTRK1-G667C cells (assay: Growth inhibition of Ba/F3-TPM3-NTRK1-G667C cells (Cell Titer-Glo)). Details: 72 hours, CTG; read-out: inhibitory activity IC50 Ba/F3-TPM3-NTRK1-G667C.
Format: cell-based
Procedure: Then the solutions were subjected to a gradient dilution with DMSO: a clean, sterile V-bottom 96-well microplate was placed in the biological safety cabinet. First, 4 μL of DMSO was added to well B2 and 10 μL of DMSO was added to wells B3-B11 respectively; Next, 6 μL of the 10 mM solution was added to well B2. The microplate was pipetted up and down 10 times for mixing. […] Mixing was performed by pipetting up and down 10 times. The solution was diluted in order until well B10. only DMSO was added to well B11 (no compound).
6× Compound Solution Preparation (6-fold dilution, × represents dilution factor): (Initial final concentration: 10 μM), a clean, sterile V-bottom 96-well microplate was placed in the biological safety cabinet. 99 μL of cell culture medium was added to each well from B2 to G11. By using a 12-channel pipettor, 1 μL of the compound solution prepared in the previous step was added into the corresponding wells. The solutions were pipetted up and down 10 times to mix the solutions. The highest concentration of compound in this step was 60 μM.
Treatment of Cells: the above-prepared cell culture plate was taken out of the incubator. 20 μL of compound solution from each well was added to the corresponding cell culture wells. The lowest pipetting speed was used and touching the bottom of the plate was avoided. The culture plate was gently shaked to mix the compound solution, then the plate was returned to the incubator for further culture for 72 hours.
The highest treatment concentration of the compound was 10 μM. After 72 hours of treatment, the Cell Titer-Glo (CTG) assay was performed. First, the cell culture plate was removed from the CO2 incubator and allowed to stand at room temperature for 30 minutes to ensure uniform temperature of the plate. The pre-prepared Cell Titer-Glo reagent (following the manufacturer's instructions) was taken and allowed to stand at room temperature to thaw. 60 μL of Cell Titer-Glo reagent was added to each well containing cells. The cells were incubated on a horizontal shaker in a dark place at 225 rpm for 1 hour at room temperature. Then, a Tecan Spark microplate reader was used to read the plate using chemiluminescence according to the manufacturer's instructions.

SMILES | IC50 [nM]
C[C@H]1Nc2ccc3ncc(n3n2)-c2nccc(n2)CCOc2ncc(F)cc21 [Example I-83, (4R,E)-5′-fluoro-4-methyl-6-oxa-3-aza-2(3,6)-imidazo[1,2-b]pyridazina-1(2,4)-pyrimidina-5(3,2)-pyridinacyclooctaphane] | < 100
C[C@H]1Nc2ccc3ncc(n3n2)-c2nccc(n2)CCOc2ccc(F)cc21 [Example I-84, (4R,E)-5^5-fluoro-4-methyl-6-oxa-3-aza-2(3,6)-imidazo[1,2-b]pyridazina-1(2,4)-pyrimidina-5(1,2)-benzenacyclooctaphane] | < 100
Fc1ccc2c(c1)[C@H]1CCCN1c1ccc3ncc(n3n1)-c1nccc(n1)CCO2 [Example I-85, (3^2R,E)-4^5-fluoro-5-oxa-2(3,6)-imidazo[1,2-b]pyridazina-1(2,4)-pyrimidina-3(1,2)-pyrrolidina-4(1,2)-benzenacycloheptaphane] | < 100
Fc1cnc2c(c1)[C@H]1CCCN1c1ccc3ncc(n3n1)-c1nccc(n1)CCO2 [Example I-87, (3^2R,E)-4^5-fluoro-5-oxa-2(3,6)-imidazo[1,2-b]pyridazina-1(2,4)-pyrimidina-4(3,2)-pyridina-3(1,2)-pyrrolidinacycloheptaphane] | < 100
Fc1ccc2c(c1)[C@H]1CCCN1c1ccc3ncc(n3n1)-c1cc(cnn1)CCO2 [Example I-91, (3^2R,E)-4^5-fluoro-5-oxa-2(3,6)-imidazo[1,2-b]pyridazina-1(3,5)-pyridazina-3(1,2)-pyrrolidina-4(1,2)-benzenacycloheptaphane] | < 100
Fc1cnc2c(c1)[C@H]1CCCN1c1ccc3ncc(n3n1)-c1cc(cnn1)CCO2 [Example I-93, (3^2R,E)-4^5-fluoro-5-oxa-2(3,6)-imidazo[1,2-b]pyridazina-1(3,5)-pyridazina-4(3,2)-pyridina-3(1,2)-pyrrolidinacycloheptaphane] | < 100

Other lines, results leading:

IC50 [nM] | SMILES
< 100 | Fc1ccc2c(c1)[C@H]1CCCN1c1ccc3ncc(n3n1)-c1cc(cnn1)CO2 [Example I-65, (14bR,E)-13-fluoro-14b,15,16,17-tetrahydro-9H-1,19-etheno-4,8-(metheno)benzo[n]imidazo[5,1-h]pyrrolo[1,2-l][1]oxa[5,6,9,10,12]pentaazacyclopentadecine]
< 100 | Fc1cnc2c(c1)[C@H]1CCCN1c1ccc3ncc(n3n1)-c1cc(cnn1)CO2 [Example I-67, (14bR,E)-13-fluoro-14b,15,16,17-tetrahydro-9H-1,19-etheno-4,8-(metheno)imidazo[5,1-h]pyrido[3,2-n]pyrrolo[1,2-l][1]oxa[5,6,9,10,12]pentaazacyclopentadecine]
< 100 | Fc1cnc2c(c1)[C@H]1CCCN1c1ccc3ncc(n3n1)-c1cc(ncn1)CCO2 [Example I-71, (3^2R,E)-4^5-fluoro-5-oxa-2(3,6)-imidazo[1,2-b]pyridazina-1(4,6)-pyrimidina-4(3,2)-pyridina-3(1,2)-pyrrolidinacycloheptaphane]
< 100 | C[C@H]1Nc2ccc3ncc(n3n2)-c2cc(ncn2)CCOc2ncc(F)cc21 [Example I-73, (4R,E)-5^5-fluoro-4-methyl-6-oxa-3-aza-2(3,6)-imidazo[1,2-b]pyridazina-1(4,6)-pyrimidina-5(3,2)-pyridinacyclooctaphane]
< 100 | C[C@H]1Nc2ccc3ncc(n3n2)-c2cc(ncn2)CCOc2ccc(F)cc21 [Example I-74, (4R,E)-5′-fluoro-4-methyl-6-oxa-3-aza-2(3,6)-imidazo[1,2-b]pyridazina-1(4,6)-pyrimidina-5(1,2)-benzenacyclooctaphane]
< 100 | C[C@H]1Nc2ccc3ncc(n3n2)-c2cc(ccn2)CCOc2ncc(F)cc21 [Example I-75, (4R,E)-5^5-fluoro-4-methyl-6-oxa-3-aza-2(3,6)-imidazo[1,2-b]pyridazina-1(2,4), 5(3,2)-dipyridinacyclooctaphane]
< 100 | C[C@H]1Nc2ccc3ncc(n3n2)-c2cc(ccn2)CCOc2ccc(F)cc21 [Example I-76, (4R,E)-5-fluoro-4-methyl-6-oxa-3-aza-2(3,6)-imidazo[1,2-b]pyridazina-1(2,4)-pyridina-5(1,2)-benzenacyclooctaphane]
< 100 | C[C@H]1Nc2ccc3ncc(n3n2)-c2cc(ncn2)COc2ncc(F)cc21 [Example I-77, (6R,E)-5^5-fluoro-6-methyl-4-oxa-7-aza-1(3,6)-imidazo[1,2-b]pyridazina-2(4,6)-pyrimidina-5(2,3)-pyridinacycloheptaphane]
< 100 | C[C@H]1Nc2ccc3ncc(n3n2)-c2cc(ncn2)COc2ccc(F)cc21 [Example I-78, (6R,E)-5^4-fluoro-6-methyl-4-oxa-7-aza-1(3,6)-imidazo[1,2-b]pyridazina-2(4,6)-pyrimidina-5(1,2)-benzenacycloheptaphane]
< 100 | C[C@H]1Nc2ccc3ncc(n3n2)-c2nccc(n2)COc2ncc(F)cc21 [Example I-79, (6R,E)-5^5-fluoro-6-methyl-4-oxa-7-aza-1(3,6)-imidazo[1,2-b]pyridazina-2(2,4)-pyrimidina-5(2,3)-pyridinacycloheptaphane]
< 100 | C[C@H]1Nc2ccc3ncc(n3n2)-c2nccc(n2)COc2ccc(F)cc21 [Example I-80, (6R,E)-5^4-fluoro-6-methyl-4-oxa-7-aza-1(3,6)-imidazo[1,2-b]pyridazina-2(2,4)-pyrimidina-5(1,2)-benzenacycloheptaphane]
< 100 | C[C@H]1Nc2ccc3ncc(n3n2)-c2cc(cnn2)COc2ncc(F)cc21 [Example I-81, (6R,E)-5^5-fluoro-6-methyl-4-oxa-7-aza-1(3,6)-imidazo[1,2-b]pyridazina-2(3,5)-pyridazina-5(2,3)-pyridinacycloheptaphane]
< 100 | C[C@H]1Nc2ccc3ncc(n3n2)-c2cc(cnn2)COc2ccc(F)cc21 [Example I-82, (6R,E)-54-fluoro-6-methyl-4-oxa-7-aza-1(3,6)-imidazo[1,2-b]pyridazina-2(3,5)-pyridazina-5(1,2)-benzenacycloheptaphane]

The compounds below were run against TRKA^WT kinase (Homo sapiens (Human), UniProt P04629) (assay: Inhibitory activity against TRKA WT kinase (Caliper mobility shift)). Details: in vitro kinase assay.
Format: biochemical
Procedure: Kinase Assay Process: 1× Kinase buffer was prepared. […] The compounds were serially diluted into 10 concentrations ([…], 0.15, and 0.05 nM) using a Precision 3-fold dilution method. By using the Echo550 liquid handler, 250 nL of the 100-fold final concentration compound was transferred to an OptiPlate-384F plate. a 2.5× final concentration kinase solution was prepared using 1× Kinase buffer. 10 μL of the 2.5× final concentration kinase solution was added to the compound wells and the positive control wells, and 10 μL of 1× Kinase buffer was added to the negative control wells. The plate was centrifuged at 1000 rpm for 30 seconds, vortexed for mixing, and then incubated at room temperature for 10 minutes. A mixture of 5/3× final concentration of ATP and Kinase Substrate 22 was prepared using 1× Kinase buffer. 15 μL of the mixture of the 5/3× final concentration ATP and the substrate was added to initiate the reaction, the 384-well plate was centrifuged at 1000 rpm for 30 seconds, vortexed for mixing, and incubated at room temperature for the required time. 30 μL of the termination solution was added to stop the kinase reaction, the plate was centrifuged at 1000 rpm for 30 seconds, and vortexed for mixing. The conversion rate was measured using the Caliper EZ Reader.
Data Analysis: the inhibition rate was calculated as follows:
% Inhibition=(Conversion %_max−conversion %_sample)÷(Conversion %_max−conversion %_min)×100
Conversion %_sample is the conversion rate reading for the sample; Conversion %_min is the average value of the negative control wells, representing the conversion rate for wells without enzyme activity: Conversion %_max is the average value of the positive control wells, representing the conversion rate for wells without compound inhibition. A dose-response curve was fitted using the log concentration of the compound as the X-axis and the percentage inhibition as the Y-axis. The log(inhibitor) vs. response-variable slope of the GraphPad Prism 5 software was used to fit the dose-response curve, and the IC50 value for each compound was obtained. The calculation formula is:
Y=Bottom+(Top−Bottom)/(1+10^((Log IC50−X)*HillSlope)).
wherein X represents the concentration of the compound to be tested; Y represents the inhibition rate at the concentration X: Top refers to the maximum response: Bottom refers to the baseline response; HillSlope refers to the slope of the curve (i.e., the gradient).

TRKA^WT kinase, sequence (P04629 33-796): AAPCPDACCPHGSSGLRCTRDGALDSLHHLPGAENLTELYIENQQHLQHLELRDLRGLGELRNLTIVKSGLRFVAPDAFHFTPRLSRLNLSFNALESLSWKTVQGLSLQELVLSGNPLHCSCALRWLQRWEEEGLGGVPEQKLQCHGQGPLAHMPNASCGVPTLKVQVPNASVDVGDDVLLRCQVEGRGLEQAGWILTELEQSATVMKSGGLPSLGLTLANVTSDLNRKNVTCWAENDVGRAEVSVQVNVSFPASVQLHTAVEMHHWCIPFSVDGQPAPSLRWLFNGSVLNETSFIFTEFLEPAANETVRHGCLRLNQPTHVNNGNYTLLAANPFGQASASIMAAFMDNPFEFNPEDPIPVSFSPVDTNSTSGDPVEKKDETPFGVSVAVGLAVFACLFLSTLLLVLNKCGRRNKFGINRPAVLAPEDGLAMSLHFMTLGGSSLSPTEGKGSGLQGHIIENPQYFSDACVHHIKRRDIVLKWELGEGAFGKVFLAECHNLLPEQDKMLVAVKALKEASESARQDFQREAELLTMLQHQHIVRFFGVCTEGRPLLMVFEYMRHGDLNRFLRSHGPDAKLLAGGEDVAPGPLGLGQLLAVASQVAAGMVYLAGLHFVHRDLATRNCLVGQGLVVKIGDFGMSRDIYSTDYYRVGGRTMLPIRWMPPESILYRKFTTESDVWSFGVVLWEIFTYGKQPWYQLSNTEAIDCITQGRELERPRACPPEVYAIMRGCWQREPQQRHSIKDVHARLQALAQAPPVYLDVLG

IC50 [nM] | SMILES
4.8 | C[C@@H]1Nc2ccc3ncc(n3n2)-c2cc(ccn2)COc2ccc(F)cc21 [Example I-15, (S)-(E)-5′-fluoro-6-methyl-4-oxa-7-aza-1(3,6)-imidazo[1,2-b]pyridazina-2(2,4)-pyridina-5(1,2)-benzenacycloheptaphane]
5.2 | C[C@@H]1Nc2ccc3ncc(n3n2)-c2cc(ccn2)COc2c(F)cc(F)cc21 [Example I-17, (S)-(E)-5′,5′-difluoro-6-methyl-4-oxa-7-aza-1(3,6)-imidazo[1,2-b]pyridazine-2(2,4)-pyridina-5(1,2)-benzenacycloheptaphane]
5.7 | C[C@@H]1Nc2ccc3ncc(n3n2)-c2cc(ccn2)COc2ccccc21 [Example I-19, (S)-(E)-6-methyl-4-oxa-7-aza-1(3,6)-imidazo[1,2-b]pyridazine-2(2,4)-pyridina-5(1,2)-benzenacycloheptaphane]
6.1 | C[C@@H]1Nc2ccc3ncc(n3n2)-c2cc(ccn2)COc2ncccc21 [Example I-21, (6S,E)-6-methyl-4-oxa-7-aza-1(3,6)-imidazo[1,2-b]pyridazina-2(2,4), 5(2,3)-dipyridinacycloheptaphane]
